These results are taken from PubChem BioAssay AID2305 (GlaxoSmithKline (GSK), 2010).

The assay concerns P. falciparum 3D7 growth, pLDH absorbance. The assay can be described thus: blood-stage malaria parasite growth potency – strain 3D7, dose response (AID 2305).
The term IC50 denotes the midpoint of a concentration-inhibition curve. A higher IC50 goes with lower potency. On to `CCCCN(CCCC)CC(O)c1cc(-c2ccc(Cl)cc2)nc2c(Cl)cc(Cl)cc12` (configuration not stated), for which the IC50 stood at 30 nM. This counts as double-digit nanomolar.
For `COc1cc2ncnc(Nc3ccc(OCc4ccccc4Br)c(OC)c3)c2cc1OC` the value was 430 nM; for `Cc1cccc(C)c1C1CCN(CCCCNC(=O)c2cc3ccccc3[nH]2)CC1`, 890 nM.
For `NCC1CCCN1Cc1ccc(-c2ccc(-c3nc4ccc(C(F)(F)F)cc4[nH]3)cc2)cc1` (configuration not stated) the value was 960 nM; for `CC(=O)Nc1nc(C(=O)Nc2ccc(-c3cccc(-c4nc5ccccc5[nH]4)c3)cc2)cs1`, 550 nM; for `CNC(=O)c1cnc(Nc2ccc(N3CCN(C)CC3)cc2)nc1Nc1cccc([N+](=O)[O-])c1`, 290 nM.
The compound `CCOC(=O)N1NC(=O)N(c2ccccc2)C1(c1ccccc1)c1ccccc1` showed an IC50 of 700 nM.
For `O=C(Nc1ccc2c(c1)CCC2)c1ccc(CN2CCCN(Cc3cccc(O)c3)CC2)cc1` the value was 890 nM; for `COc1ccc2c(NN=Cc3c(OC)ccc4ccccc34)cc(C)nc2c1`, 780 nM; for `CN1Cc2cc(NC(=O)/C=C/c3ccccc3Cl)ccc2C(C)(C)C1`, 640 nM.
For `CC(C)COc1ccc(Cl)cc1Cc1ccc(-c2nc3c(F)cccc3[nH]2)o1` the value was 810 nM; for `CCCCCCCCOc1c(OCC)cc(Cc2cnc(N)nc2N)cc1OCC`, 1530 nM; for `CCC(C)NS(=O)(=O)c1ccc2nc(Nc3ccc(C)cc3)n(C3CCCCC3)c2c1` (configuration not stated), 460 nM.
Take `FC(F)(F)c1ccc2nc(-c3cccc(-c4ccc(CNCCc5ccncc5)cc4)c3)[nH]c2c1`: the IC50 is 100 nM.
Regarding `COc1ccc(Cn2c(Nc3cccc(C(F)(F)F)c3)nc3cc(C(=O)NCCN4CCCC4)cnc32)cc1Cl`, the IC50 was found to be 920 nM.
For `COc1ccc(-c2cccc(NC(=O)c3cccs3)c2)cc1CN1CCCN(C)CC1` the value was 700 nM; for `COC(=O)c1cccc(CNCc2cccc(-c3ccc(-c4nc5ccccc5[nH]4)s3)c2)c1`, 490 nM; for `Cc1ccccc1NC(=S)NC1CCN(CCCCCNC(=O)/C=C/c2ccc(Cl)c(Cl)c2)CC1`, 790 nM.
For `CC(=O)Nc1ccc(OCCCN(Cc2ccccc2C(F)(F)F)c2ccc(C(F)(F)F)c(C#N)c2)c(Cl)c1` the value was 1450 nM; for `O=C(Nc1ccc(N2CCCCC2)c(Cl)c1)c1ccc(Br)o1`, 550 nM; for `COc1cc2[nH]c(-c3ccc(O)cc3)c(C)c(=O)c2c(OC)c1OC`, 720 nM.
For `CCOc1ccc(-c2nonc2NC(=O)CC(C)C)cc1OCC` the value was 980 nM; for `CCc1sc(-c2cc(Cl)ccc2OC)nc1C(=O)NCCN1CCCCC1`, 940 nM.
In turn, `CC(C)CNCc1cccc(-c2ccccc2CNC2CCN(Cc3ccccc3)CC2)c1` came in with an IC50 of 580 nM.
For `O=C(Nc1ccc(C(=O)OC[C@@H]2CCCN3CCCC[C@H]23)cc1)c1ccc([N+](=O)[O-])cc1` the value was 720 nM; for `CN(C)c1ccc(-c2csc(C(=O)NC3CCN(CCC(C)(C)C)C3)c2)cc1` (configuration not stated), 970 nM.
In turn, `Cc1cccc(C(=O)NCCCN2CCC(NC(=O)/C=C/c3ccc(Cl)c(Cl)c3)CC2)c1` gave an IC50 of 1700 nM. This IC50 is about 1.8-fold higher than that of the compound before.
To `NC1=NC2(CCCCC2)N(Cc2ccc(Cl)c(Cl)c2)C(N)=N1` belongs 620 nM; to `COc1cc(C(=O)NCCCN2CCN(c3cc(Cl)ccc3OC)CC2)ccc1-c1nc2cc(Cl)c(Cl)cc2[nH]1`, 730 nM; to `O=c1cc(NCCCNCc2cc(Br)cs2)[nH]c2ccccc12`, 1060 nM.
`c1cc(Nc2nc(-c3ccc(-c4csc(Nc5ccncc5)n4)cc3)cs2)ccn1`: the IC50 was 120 nM.
For `CCN(CC)C(=NCCCCCCN=C(NC(N)=NCc1ccc(Cl)cc1Cl)N(CC)CC)NC(N)=NCc1ccc(Cl)cc1Cl` the value was 220 nM; for `CCc1ccc(NC(=O)c2cccc(CN3CCCN(Cc4cccc(O)c4)CC3)c2)cc1`, 890 nM; for `O=C(Cn1cc(C=C2SC(=NC3CCCC3)N(C3CCCC3)C2=O)c2ccccc21)N1CCCC1`, 300 nM.
For `O=C(Nc1ccc(F)cc1)NC1CCN(CCCCCNC(=O)[C@@H]2C[C@H]2c2ccc(Cl)c(Cl)c2)CC1` the value was 990 nM; for `OC(c1cc(C(F)(F)F)nc2c(F)cccc12)C1CCCCN1` (configuration not stated), 780 nM; for `CO/C(=C\C=C\c1cc2cc(Cl)c(Cl)cc2[nH]1)C(=O)NCCCCN1CCN(c2ccccc2OC)CC1`, 510 nM.
For `COc1cc2nc(N3CCC(CNC(=O)c4ccc(-c5cccc(C#N)c5)cc4)CC3)nc(N)c2cc1OC` the value was 140 nM; for `CN1CCN(c2ccnc3ccc(NC(=O)Nc4cccc5c(Br)cccc45)cc23)CC1`, 150 nM.
The compound `Cc1ccccc1Nc1nc(NCCCO)c2ccccc2n1` showed an IC50 of 410 nM.
With `Cc1noc(-c2cccs2)c1C(=O)NCCc1cccc(Cl)c1`, the IC50 came to 460 nM.
For `OC(CNCCCc1ccccc1)c1cc(OCc2ccccc2)cc(OCc2ccccc2)c1` (configuration not stated) the value was 850 nM; for `N=C(N)c1ccc(Oc2ccc(C(=N)N)cc2)cc1`, 320 nM; for `CC[C@H]1CN2CCc3c([nH]c4ccccc34)[C@@H]2C[C@@H]1CC1c2cc(OC)c(OC)cc2CCN1C` (some centres not stated), 1090 nM.
For `Cc1c(CN2CCCCC2)cccc1OCCCNc1nc(NCCc2ccc(O)cc2)nc(N2CCNCC2)n1` the value was 220 nM; for `O=C1C(c2ccccc2)=C(Nc2ccc(Cl)cc2)c2ccccc21`, 610 nM.
For `Cc1cccc2[nH]c(-c3ccc(-c4cccc(NC(=O)c5cccc(C(N)=O)c5)c4)cc3)nc12` the value was 1130 nM.
`COc1ccc(Nc2nc(NCc3ccc(-n4ccnc4)cc3)cc(-c3ccc(OC)cc3)n2)cc1` returned an IC50 of 830 nM.
`COc1ccc2nccc(N3CCC(CCNCc4ccc5c(n4)NC(=O)CS5)CC3)c2c1` displayed an IC50 of 210 nM.
To `O=C(/C=C/c1ccc(Cl)cc1)NCCCCCN1CCCC(C(=O)Nc2ccc(Cl)c(Cl)c2)C1` (configuration not stated) belongs 830 nM; to `COc1cccc(CN2CCCC(CCC(=O)Nc3ccc(C(F)(F)F)cc3)C2)c1O` (configuration not stated), 750 nM; to `CCC1(CC)N=C(N)N=C(N)N1OCc1ccc(Cl)c(Cl)c1`, 60 nM.
For `CC(C)c1sc(N2CCN(C)CC2)nc1C(=O)Nc1cccc2c1CCCC2`, the IC50 was 1280 nM.
In turn, `CN(C)c1ccc(CN2CCC(NC(=O)c3ccc(-c4ccccc4Cl)s3)CC2)cc1` had an IC50 of 900 nM.
To `CC(C)(C)OC(=O)NCc1ccc(Nc2nnc(-c3ccc(OCC(=O)NC[C@@H]4CC[C@H]5C[C@@H]4C5(C)C)c([N+](=O)[O-])c3)o2)cc1` belongs 910 nM; to `COc1ccc(CN2CCC(Oc3cccc(NC(=O)c4ccc(C(F)(F)F)cc4)c3)CC2)cc1`, 740 nM.
To `C(=NNc1cc(-c2ccccc2)nc2ccccc12)c1cccnc1` belongs 1230 nM.
For `NC1CCN(Cc2ccc(-c3ccc(-c4nc5ccc(F)cc5[nH]4)cc3)cc2)C1` (configuration not stated) the value was 180 nM; for `COc1cc(F)c2ncc(Cl)c([C@H](O)CN3CCC(NCc4cc5c(cn4)OCCO5)CC3)c2c1`, 100 nM; for `CCCC1CCNC(C(O)c2ccnc3ccc(OC)cc23)C1` (configuration not stated), 430 nM.
In the case of `Nc1c2ccccc2nc2cc(Cl)ccc12`, the IC50 is 710 nM.
For `CN1CCN(Cc2cccc(-c3ccc4c(Nc5cc(O)c(Cl)cc5F)ccnc4c3)c2)CC1` the value was 770 nM; for `NS(=O)(=O)NCCCN1CCN(c2ccccc2)CC1`, 980 nM; for `c1ccc2[nH]c(-c3ccc(-c4ccc(CN5CCN(CCN6CCOCC6)CC5)cc4)s3)nc2c1`, 280 nM.
As for `O=C(Nc1ccc(-c2cccc(-c3nc4ccccc4[nH]3)c2)cc1)c1cnn2cccnc12`, the IC50 worked out at 600 nM. This IC50 lies about 2.1-fold higher than the previous one.
For `O=C(Nc1ccc(N2CCNCC2)nc1)c1oc(-c2ccccc2)nc1C(F)(F)F` the value was 980 nM; for `O=C(c1cc(-c2cccs2)[nH]n1)N1CCN(S(=O)(=O)c2ccc(Cl)cc2)CC1`, 290 nM.
In turn, `CO/N=C(\C)c1ccc2c(c1)CCN(CCC1CCC(NC(=O)/C=C/c3ccc(F)cc3)CC1)CC2` (configuration not stated) showed an IC50 of 1070 nM.
To `COc1cccc2c(NN=Cc3cccc([N+](=O)[O-])c3)ccnc12` belongs 750 nM.
As for `CC(C)CNC(=S)N1CCCN(c2nc3ccc(Cl)cc3s2)CC1`, the IC50 was determined as 960 nM. The IC50 values of the last two compounds are within 1.5-fold of each other.
To `Clc1ccc(NC(=NCCCCCCCN=C(Nc2ccc(Cl)cc2)Nc2ccc(Cl)cc2)Nc2ccc(Cl)cc2)cc1` belongs 320 nM; to `CN1CCN(S(=O)(=O)c2ccc3nccc(Nc4ccc(Oc5ccccc5)cc4)c3c2)CC1`, 820 nM; to `COc1ccc(-c2cccc(NC(=O)c3cccc(C#N)c3)c2)cc1CN1CCCN(C)CC1`, 190 nM.
Compound `O=C(/C=C/c1ccc(Cl)c(Cl)c1)NCCCCCN1CCC(NC(=O)c2ccc3ccccc3c2)CC1` came in with an IC50 of 1020 nM.
The compound `CC[C@H](NC(=O)c1c(CN2CCC(N3CCCCC3)CC2)c(-c2ccccc2)nc2cc(O)ccc12)c1ccccc1` yielded an IC50 of 1370 nM. This IC50 and that of the compound before are within 1.5-fold of each other.
For `OC1CCN(c2cc(-c3ccccn3)nc(-c3ccccn3)n2)CC1` the value was 1050 nM; for `CS(=O)(=O)c1ccc(-n2nc(C(F)(F)F)cc2-c2ccc(/C=N/OCC(=O)O)o2)cc1`, 980 nM; for `CC(CN1CCN(C)CC1)C(=O)Nc1ccc(-c2ccc(-c3nc4ccc(C(F)(F)F)cc4[nH]3)cc2)cc1` (configuration not stated), 410 nM.
In turn, `CC(C)n1ncc2c3c(N)nc(N)nc3ccc21` yielded an IC50 of 330 nM.
As to `CC(C)Oc1ccc2ccccc2c1CNCCCCCCNCc1c(OC(C)C)ccc2ccccc12`, the IC50 was determined as 610 nM.
Compound `CCOc1ccc(OCC)c(N2CCN(CCCCNC(=O)c3ccc(NC(=O)c4ccc(Cl)cc4)cc3)CC2)c1` displayed a 50% inhibitory concentration (IC50) of 590 nM.
To `O=C(c1cc2nc3c(c(C(F)(F)F)n2n1)CCc1ccccc1-3)N1CCN2CCCC2C1` (configuration not stated) belongs 950 nM; to `O=C(NCCc1ccccc1)N(Cc1cccc(-c2ccc(CNCc3ccc4c(c3)OCO4)cc2)c1)C1CCN(Cc2ccccc2)CC1`, 660 nM; to `CS(=O)(=O)c1cccc(-c2cnc(N)c3cc(-c4ccc5c(c4)OCO5)ccc23)c1`, 1040 nM.
For `O=C(Nc1ccc(N2CCN(c3ncccc3C(F)(F)F)CC2)nc1)c1cccs1` the value was 1190 nM.
For `CCc1nc2nc(C)cc(Nc3ccc(F)c(Cl)c3)n2n1` the value was 970 nM.
In turn, `COc1ccccc1CCNc1nc(C)cc(N[C@@H](Cc2ccccc2)C(=O)NCCCOC(C)C)n1` had an IC50 of 860 nM.
